Measured values taken from patent US4232008A, “Tetrapeptides and methods” (Ortho Pharmaceutical Corporation, priority 1978, dated 1980).
Square brackets hold non-standard residues; d marks the D form. Ends that are not written are not given here. Peptide text beside a SMILES is read from it. Glx = not defined here; Sar = CNCC(=O)O

How the values were obtained:
[1] = test system: Th-1+ T-lymphocytes and Bu-1+ B-lymphocytes (differentiation of inducible bone marrow cells); assay: chicken induction assay; assay type: cell-based; conditions: for biological activity: induction of differentiation of Th-1+ T and Bu-1+ B lymphocytes, compared with ubiquitin: chicken bone marrow cells, cytotoxicity index readout; for concentration at which activity was observed: chicken induction assay
From the text: To determine the activity and characteristics of the tetrapeptide produced in Example I, the following chicken induction assay was employed. This assay is described in greater detail in Brand, et. al., Science, 193 319-321 (July 23, 1976) and references contained therein.
Bone marrow from newly-hatched chickens was selected as a source of inducible cells because it lacks an appreciable number of Bu-1^+ or Th-1^+ cells. Pooled cells from femur and tibiotarsus of five newly-hatched chicks of strains SC (Hy-Line) were fractionated by ultracentrifugation on a five-layer discontinuous bovine serum albumin (BSA) gradient. Cells from the two lighter layers were combined, washed, and suspended for incubation at a concentration of 5×10^6 cells per milliliter with the appropriate concentration of test polypeptide in RPMI 1630 medium supplemented with 15 mM hepes, 5 percent γ-globulin-free fetal calf serum, deoxyribonuclease (14 to 18 unit/ml), heparin (5 unit/ml), penicillin (100 unit/ml), and streptomycin (100 μg/ml). Controls were incubated with BSA (1 μg/ml) or medium alone. After incubation, the cells were tested in the cytotoxicity assay using chicken Cl and guinea pig C2 to C9 complement fractions as described in the reference article. The proportion of Bu-1^+ or Th-1^+ cells in each layer was calculated as a cytotoxicity index, 100 (a-b)/a, where a and b are the percentages of viable cells in the complement control and test preparation, respectively. The percentage of cells induced was obtained by subtracting the mean values in the control incubations without inducing agents (usually 1 to 3 percent) from those of the test inductions.
This high dose of ubiquitin inactivates the ubiquitin receptors and thus prevents the induction of cells by any agent which acts through these receptors.

[2] = test system: cytotoxic lymphocyte precursors (CLP); assay: microculture limiting dilution assay of cytotoxic lymphocyte precursor frequencies after injection of the drug; assay type: in vivo, mice (C57 BL/6J); conditions: in vitro assay of spleen cells after administration
Protocol: To further illustrate the utility of the subject polypeptides, this example describes a microculture assay for estimating the frequencies of the cytotoxic lymphocytes produced upon stimulation by allogenic antigens. The frequencies of cytotoxic precursors between control animals and animals injected with various concentrations of the drug were compared by a limiting dilution assay.
The test animals (C57 BL/6J) were injected (i.v. or i.p.) with various concentrations of H--SAR--LYS--SAR--GLN--NH2 (the drug; identification no. G040) in 0.2 ml volume 24 hours before they were sacrificed for the experiments.
Cell suspensions from spleens of C57 BL/6J mice or DBA/2J mice were prepared by mincing the organ and pressing them through a wire mesh (60 gauge) with the plunger of a 5 c.c. syringe into a falcon petri dish (falcon 3002, 15×60 mm). The cell suspensions were allowed to stand at room temperature for 10 minutes to let the big chunks of tissue settle. The cell suspensions were then transferred to 15 ml Corning centrifuge tubes (Corning 25310) and spun for 10 minutes at 1500 RPM in the Beckmen TJ-6 centrifuge. […] After the third wash, the responder (C57 BL/6J) cells were resuspended in culture medium and counted in the Coulter counter. […] The DBA cells were then resuspended in the culture medium and counted in the Coulter counter. […]

T cells = conditions: E rosette assay, Bach articles; cited from earlier work
T cells and B cells = conditions: applicant's published investigation; cited from earlier work

Compound | biological activity: induction of differentiation of Th-1+ T and Bu-1+ B lymphocytes, compared with ubiquitin [1] | also measured
C[C@H](N)C(=O)N[C@@H](CCCCN)C(=O)N[C@@H](CO)C(=O)N[C@@H](CCC(N)=O)C(=O)O [Example I, H--ALA--LYS--SER--GLN--OH] (H-AKSQ-OH) | biological activity similar to that of ubiquitin | concentration at which activity was observed [1]: ng/ml concentrations
C[C@@H](N)C(=O)N[C@@H](CCCCN)C(=O)N[C@H](C)C(=O)N[C@@H](CCC(N)=O)C(N)=O [H--D--ALA--LYS--D--ALA--GLN--NH2] (H-[dA]K[dA]Q-NH2) | biological activity similar to that of ubiquitin | 
CNCC(=O)N[C@@H](C)C(=O)N[C@@H](CCCCN)C(=O)N[C@@H](CO)C(=O)N[C@@H](CCC(N)=O)C(=O)O [H--SAR--ALA--LYS--SER--GLN--OH] (H-[Sar]AKSQ-OH) | biological activity similar to that of ubiquitin | 
CNCC(=O)N[C@@H](CCCCN)C(=O)N[C@H](C)C(=O)N[C@@H](CCC(N)=O)C(N)=O [H--SAR--LYS--D--ALA--GLN--NH2] (H-[Sar]K[dA]Q-NH2) | biological activity similar to that of ubiquitin | 
CNCC(=O)N[C@@H](CCCCN)C(=O)N(C)CC(=O)N[C@@H](CCC(N)=O)C(N)=O [H--SAR--LYS--SAR--GLN--NH2] (H-[Sar]K[Sar]Q-NH2) | biological activity similar to that of ubiquitin | concentration at which activity was observed [1]: ≥ 0.1 pg/mL; effect on in vivo production of cytotoxic lymphocyte precursors upon stimulation by allogenic antigens [2]: promoted the production of cytotoxic lymphocyte precursors
GLX--ALA--LYS--SER--GLN--GLY--GLY--SER--ASN (Glx-AKSQGGSN; reading uncertain; also: N-terminal Glx: Gln or pyroglutamic acid, printed as GLX--ALA--LYS--SER--GLN--GLY--GLY--SER--ASN) [FTS, nonapeptide isolated from porcine serum by Bach; GLX is glutamine or pyroglutamic acid] |  | differentiation of T cells versus B cells (T cells): selectively differentiated T cells (and not B cells); differentiation of T cells and B cells (T cells and B cells): differentiated both T cells and B cells
QAKSQ [H--GLN--ALA--LYS--SER--GLN--OH] | biological activity similar to that of ubiquitin | 
QAKSQGGSN [H--GLN--ALA--LYS--SER--GLN--GLY--GLY--SER--ASN--OH, reference compound] | biological activity similar to that of ubiquitin | 
